These compounds were tested against E-selectin (Homo sapiens, UniProt P16581) (assay: E-Selectin Activity - competitive binding assay (sLe^a polyacrylamide conjugate vs immobilized E-selectin/Ig chimera)). Conditions: concentration required to inhibit binding of sLe^a conjugate to immobilized E-selectin/Ig chimera by 50%.
Protocol: The inhibition assay to screen for and characterize glycomimetic antagonists of E-selectin is a competitive binding assay, which allows the determination of IC50 values. E-selectin/Ig chimera was immobilized in 96 well microtiter plates by incubation at 37° C. for 2 hours. To reduce nonspecific binding, bovine serum albumin was added to each well and incubated at room temperature for 2 hours. The plate was washed and serial dilutions of the test compounds were added to the wells in the presence of conjugates of biotinylated, sLe^a polyacrylamide with streptavidin/horseradish peroxidase and incubated for 2 hours at room temperature.
To determine the amount of sLe^a bound to immobilized E-selectin after washing, the peroxidase substrate, 3,3′,5,5′ tetramethylbenzidine (TMB) was added. After 3 minutes, the enzyme reaction was stopped by the addition of H3PO4, and the absorbance of light at a wavelength of 450 nm was determined.

Chain of E-selectin (P16581 22-610 limits assumed): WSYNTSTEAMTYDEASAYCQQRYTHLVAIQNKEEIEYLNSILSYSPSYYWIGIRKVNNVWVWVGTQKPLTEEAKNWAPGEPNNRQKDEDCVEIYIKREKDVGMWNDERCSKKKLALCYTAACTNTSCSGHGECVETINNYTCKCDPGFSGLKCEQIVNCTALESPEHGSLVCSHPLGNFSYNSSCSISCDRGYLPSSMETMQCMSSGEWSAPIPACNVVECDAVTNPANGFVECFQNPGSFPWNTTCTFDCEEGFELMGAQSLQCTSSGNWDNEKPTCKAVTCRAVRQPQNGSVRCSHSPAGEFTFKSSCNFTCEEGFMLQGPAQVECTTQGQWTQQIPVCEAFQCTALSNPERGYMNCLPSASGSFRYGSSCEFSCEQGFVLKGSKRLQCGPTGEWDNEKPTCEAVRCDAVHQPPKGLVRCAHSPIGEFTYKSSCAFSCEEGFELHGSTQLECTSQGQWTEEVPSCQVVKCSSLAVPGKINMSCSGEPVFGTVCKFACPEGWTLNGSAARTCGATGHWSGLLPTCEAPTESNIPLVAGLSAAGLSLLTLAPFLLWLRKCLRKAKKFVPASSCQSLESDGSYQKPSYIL

| IC50 | Compound |
| --- | --- |
| 720 nM | CCC1CC(C(=O)NCCNC(=O)CCC(=O)O)C[C@@H](O[C@@H]2O[C@@H](CO)[C@H](O)C(O[C@@H](CC3CCCCC3)C(=O)O)C2NC(C)=O)[C@@H]1O[C@@H]1OC(C)[C@@H](O)[C@H](O)C1O (stereo partly drawn) [Compound 35] |
| 192 nM | CCC1CC(C(=O)NCCNC(=O)CCOCCOCCNC(=O)c2cn(C(COS(=O)(=O)O)(COS(=O)(=O)O)COS(=O)(=O)O)nn2)C[C@@H](O[C@@H]2O[C@@H](CO)[C@H](O)C(O[C@@H](CC3CCCCC3)C(=O)O)C2NC(C)=O)[C@@H]1O[C@@H]1OC(C)[C@@H](O)[C@H](O)C1O (stereo partly drawn) [Compound 46] |
| 2120 nM | CCC1CC(C(=O)NCCNC(=O)CCCS(=O)(=O)O)C[C@@H](O[C@@H]2O[C@@H](CO)[C@H](O)C(O[C@@H](CC3CCCCC3)C(=O)O)C2NC(C)=O)[C@@H]1O[C@@H]1OC(C)[C@@H](O)[C@H](O)C1O (stereo partly drawn) [Compound 33] |
| 660 nM | CCC1CC(C(=O)NCCNC(=O)[C@@H](OS(=O)(=O)O)[C@H](COS(=O)(=O)O)OS(=O)(=O)O)C[C@@H](O[C@@H]2O[C@@H](CO)[C@H](O)C(O[C@@H](CC3CCCCC3)C(=O)O)C2NC(C)=O)[C@@H]1O[C@@H]1OC(C)[C@@H](O)[C@H](O)C1O (stereo partly drawn) [Compound 25] |
| 190 nM | CCC1CC(C(=O)NCCNC(=O)[C@@H](OS(=O)(=O)O)[C@@H](COS(=O)(=O)O)OS(=O)(=O)O)C[C@@H](O[C@@H]2O[C@@H](CO)[C@H](O)C(O[C@@H](CC3CCCCC3)C(=O)O)C2NC(C)=O)[C@@H]1O[C@@H]1OC(C)[C@@H](O)[C@H](O)C1O (stereo partly drawn) [Compound 24] |
| 240 nM | CCC1CC(C(=O)NCCNC(=O)c2cn(CC(CO)(CO)CO)nn2)C[C@@H](O[C@@H]2O[C@@H](CO)[C@H](O)C(O[C@@H](CC3CCCCC3)C(=O)N3CCC3)C2NC(C)=O)[C@@H]1O[C@@H]1OC(C)[C@@H](O)[C@H](O)C1O (stereo partly drawn) [Compound 20] |
| 520 nM | CCC1CC(C(=O)NCCNC(=O)c2cn(CCCO)nn2)C[C@@H](O[C@@H]2O[C@@H](CO)[C@H](O)C(O[C@@H](CC3CCCCC3)C(=O)N3CCC3)C2NC(C)=O)[C@@H]1O[C@@H]1OC(C)[C@@H](O)[C@H](O)C1O (stereo partly drawn) [Compound 21] |
| 2360 nM | CCC1CC(C(=O)NCCNC(=O)CC(CS(=O)(=O)O)S(=O)(=O)O)C[C@@H](O[C@@H]2O[C@@H](CO)[C@H](O)C(O[C@@H](CC3CCCCC3)C(=O)O)C2NC(C)=O)[C@@H]1O[C@@H]1OC(C)[C@@H](O)[C@H](O)C1O (stereo partly drawn) [Compound 31] |
| 2780 nM | CCC1CC(C(=O)NCCNC(=O)CC(C)S(=O)(=O)O)C[C@@H](O[C@@H]2O[C@@H](CO)[C@H](O)C(O[C@@H](CC3CCCCC3)C(=O)O)C2NC(C)=O)[C@@H]1O[C@@H]1OC(C)[C@@H](O)[C@H](O)C1O (stereo partly drawn) [Compound 30] |
| 170 nM | CCC1CC(C(=O)NCCNC(=O)c2cn(CC(CO)(COS(=O)(=O)O)COS(=O)(=O)O)nn2)C[C@@H](O[C@@H]2O[C@@H](CO)[C@H](O)C(O[C@@H](CC3CCCCC3)C(=O)N3CCC3)C2NC(C)=O)[C@@H]1O[C@@H]1OC(C)[C@@H](O)[C@H](O)C1O (stereo partly drawn) [Compound 18] |
| 580 nM | CCC1CC(C(=O)NCCNC(=O)c2cn(CCCOS(=O)(=O)O)nn2)C[C@@H](O[C@@H]2O[C@@H](CO)[C@H](O)C(O[C@@H](CC3CCCCC3)C(=O)N3CCC3)C2NC(C)=O)[C@@H]1O[C@@H]1OC(C)[C@@H](O)[C@H](O)C1O (stereo partly drawn) [Compound 19] |
| 510 nM | CCC1CC(C(=O)NCCNC(=O)CCCC(=O)O)C[C@@H](O[C@@H]2O[C@@H](CO)[C@H](O)C(O[C@@H](CC3CCCCC3)C(=O)O)C2NC(C)=O)[C@@H]1O[C@@H]1OC(C)[C@@H](O)[C@H](O)C1O (stereo partly drawn) [Compound 36] |

From patent publication US20240165139A1, “GALACTOPYRANOSYL-CYCLOHEXYL DERIVATIVES AS E-SELECTIN ANTAGONISTS” (GLYCOMIMETICS, INC., priority 2017, published 2024)
